Assay results taken from patent US10858305B2, “Perillyl alcohol-3-bromopyruvate conjugate and methods of treating cancer” (NeOnc Technologies, Inc., priority 2016, dated 2020).
Entries after “also recorded” stand apart in the source; their conditions may differ. Where two headings read alike, the source gives them in different places.

Legend:
[1] = tested on: HCT116, LN229, T98G, U251, MCF7, T47D, MDA-MB-231, MDA-MB-468, BTM-12, ME16C cells; experiment: 24-hour MTT assay in 10 cell lines with MCT-1 levels (FIGS. 16A-16C); format: cell-based; conditions: Homo sapiens, read-out: IC50 (concentration of drug that kills 50% of the cell population)
Source text: The following established human cell lines were used: (A) HCT116 colon carcinoma; (B) LN229, T98G, and U251 glioblastoma; (C) MCF7, MDA-MB-231, MDA-MB-468, BTM-12, and T47D breast carcinoma; and ME16C normal mammary gland epithelium cells (immortalized with telomerase). […] Bars with error bars represent ≥3 measurements, whereas graphs without error bars show the average of two independent measurements. The middle panels show MCT-1 protein levels for each cell line, as determined by Western blot with actin as the loading control.
Methylthiazoletetrazolium (MTT) assays were performed as described earlier.
Because it was reported that the cytotoxic effects of 3-BP in vitro depend on the presence of MCT-1, we began our study by characterizing MCT-1 expression levels along with cytotoxicity of 3-BP in the various tumor cell lines to be used in our study. We included one colon carcinoma cell line (HCT116), three glioblastoma cell lines (LN229, T98G, U251), four breast cancer cell lines (MCF7, T47D, MDA-MB-231, MDA-MB-468), one culture of primary breast cancer cells (BTM-12), and an established line of normal breast epithelial cells (ME16C). For all 10 cell lines, we established IC50 (concentration of drug that kills 50% of the cell population) by MTT assay, along with MCT-1 protein levels by Western blot analysis. As summarized in FIGS. 16A-16C, MCT-1 levels varied greatly in the different cells, and so did their IC50 values.

[2] = target: T1, GAPDH (Homo sapiens, UniProt P04406); experiment: GAPDH activity assay after 30 minutes drug treatment of living cells; format: cell-based; design: endogenous in cells
T1 sequence (P04406 whole entry): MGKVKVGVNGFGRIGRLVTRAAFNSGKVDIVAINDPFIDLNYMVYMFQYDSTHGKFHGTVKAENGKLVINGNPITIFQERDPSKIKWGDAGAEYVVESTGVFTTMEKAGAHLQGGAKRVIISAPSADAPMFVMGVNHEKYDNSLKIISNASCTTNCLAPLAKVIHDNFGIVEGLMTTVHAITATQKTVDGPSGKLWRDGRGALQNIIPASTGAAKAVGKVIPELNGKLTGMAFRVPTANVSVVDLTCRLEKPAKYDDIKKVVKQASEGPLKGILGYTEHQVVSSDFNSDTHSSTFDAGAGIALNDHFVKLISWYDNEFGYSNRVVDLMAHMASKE
Description: (§1) (A) HCT116 cells were treated with 40 μM 3-BP or NEO218 in the presence or absence of 1 mM NAC, 1 mM GSH, or 50 mM methyl-pyruvate (or sodium pyruvate, which produced similar outcomes). Cell viability was determined 24 hours later by MTT assay. (B) HCT116 cells were treated with 30 or 100 μM 3-BP or NEO218. After 30 minutes, cell lysates were prepared and analyzed for GAPDH activity. (C) Lysates from non-drug-treated MDA-MB-231 cells were mixed with 3-BP or NEO218 in the presence or absence of NAC or GSH at the concentrations mentioned in A. After 1 hour of incubation, GAPDH activity was determined. GAPDH activity in the absence of drug treatment was set at 100% (corresponding to 0.06 units/min×10^6 cells).
Enzymatic activity of GAPDH in vitro was measured with the Colorimetric GAPDH Assay kit (ScienCell Research Laboratories, Carlsbad, Calif.). This assay is based on the oxidization of β-NADH to β-NAD in the presence of 3-phosphoglyceric acid, ATP and GAPDH. GAPDH activity is determined by assaying the rate of NADH oxidation, which is proportional to the reduction in absorbance at 340 nm over time (ΔA340 nm/min). One hundred thousand cells were lysed in 100 μL cell lysis buffer and incubated with the above components. Changes in absorbance over 10 minutes were calculated and normalized to untreated controls. Data are presented as percentage of controls. […]

[3] = tested on: tumor cells (two cell lines, incl. MCF7/Dox); experiment: Colony formation assay (CFA), 24 hours drug exposure (FIG. 5); format: cell-based, human; conditions: colonies after ten to fifteen days
Description: The effect of NEO218 on tumor cell survival and colony formation relative to 3-BP, POH and 3-BP+POH was evaluated via the colony formation assay (CFA). Six hundred cells per culture well were seeded and exposed to increasing concentrations of NEO218, 3-BP, a mix of 3-BP+POH, or POH alone. After 24 hours, all drugs were removed from cells and fresh culture medium was added. Ten to fifteen days later, the surviving cells had formed colonies of descendants, which were stained and counted.

[4] = target: T1, GAPDH; experiment: GAPDH activity assay, drugs added to cell lysates (cell-free); format: biochemical; design: endogenous in cells; host or cells: MDA-MB-231 cell lysate; conditions: for inhibition of GAPDH enzyme activity: cell lysates incubated with drug for 1 hour; for effect of NAC or GSH on drug-induced inhibition of GAPDH activity: cell lysates, 1 mM NAC or GSH
Description: as §1
The capacity of NEO218 to inhibit the enzymatic function of GAPDH in a cell-free system was investigated. Cell lysates were incubated with NEO218 and 3-BP (individually) for 1 hour, and enzymatic activity of GAPDH (glyceraldehyde-3-phosphate dehydrogenase) was determined. Increasing concentrations of NEO218 and 3-BP were applied. Separately, 50 μM NEO218 and 3-BP, respectively, were applied together with 1 mM NAC or GSH. The enzymatic activity of GAPDH was determined with the use of a commercially available GAPDH activity assay kit.
Enzymatic activity of GAPDH in vitro was measured with the Colorimetric GAPDH Assay kit (ScienCell Research Laboratories, Carlsbad, Calif.). This assay is based on the oxidization of β-NADH to β-NAD in the presence of 3-phosphoglyceric acid, ATP and GAPDH. GAPDH activity is determined by assaying the rate of NADH oxidation, which is proportional to the reduction in absorbance at 340 nm over time (ΔA340 nm/min). One hundred thousand cells were lysed in 100 μL cell lysis buffer and incubated with the above components. Changes in absorbance over 10 minutes were calculated and normalized to untreated controls. Data are presented as percentage of controls. Two types of drug treatments were performed: in one approach, drugs were added to proliferating cells for 30 minutes under regular cell culture conditions; in the other approach, drugs were added to cell lysates for 1 hour at 4° C.

[5] = tested on: HCT116 colon cancer cells; experiment: LDH release assay in HCT116 cells; format: cell-based; conditions: Homo sapiens, HCT-116; HCT116, 16 hours; read-out: half-maximal effect, LDH assay
Description: (A) MTT assay was performed after 24 hours. […] (B) LDH assay was performed after […]. LDH release by untreated cells was set to 1. Relative fold increase is shown (n=3).
The capacity for rapid cell killing by NEO218 relative to 3-BP, POH and 3-BP+POH was evaluated via LDH assay, where LDH release is used as a proxy for cell death.
In FIG. 4, Panels (a) and (b), show the results of treating breast cancer cell lines with increasing concentrations of NEO218, 3-BP, or 3-BP mixed with POH. […] In all cases a-d, the release of LDH (as a marker of cell death) was measured after 24 hours.
Depending on the cell line, 2000 to 4000 cells per well were seeded in a volume of 50 μL into a 96-well plate. The next day, drugs ere added in an additional 50 μL of medium. At different time points (usually after 24 hours of incubation), 50 μL medium was removed and processed with the LDH Cytotoxicity Assay Kit (Thermo Fisher Scientific, Waltham, Mass.) according to the manufacturer's instructions. This kit measures extracellular LDH in culture medium using an enzymatic reaction that results in a red formazan product, which can be measured spectrophotometrically. The absorbance was measured at 490 and 680 nm. All LDH levels were normalized to untreated controls and presented as fold change of the controls.

[6] = tested on: tumor cell lines; experiment: cells; format: cell-based, human
Description: Different tumor cell lines were treated with 3-BP mixed with POH, and the effects were compared to the effects of NEO218, as well as to 3-BP alone. The cells were treated for 24 hours, and then the MTT assay was conducted to measure cell viability.

With `O=C(O)C(=O)CBr` [3-BP, 3-bromopyruvate] the IC50 ([1]; 24 h, cells with high MCT-1 levels (HCT116, U251, ME16C, MDA-MB-468), 24 hours) was 15 to 60 µM, the IC50 ([1]; 24 h, cells with lesser MCT-1 levels, 24 hours) was 150 to 300 µM and the IC50 [2] was < 30 µM. The “inhibition of colony formation, comparison” value [3] was “substantially less potent”, the “inhibition of GAPDH enzyme activity” value [4] was “potent inhibition of GAPDH enzyme activity; also recorded: potently decreased enzymatic GAPDH activity” and the “effect of NAC or GSH on drug-induced inhibition of GAPDH activity” value [4] was “effectively prevented the drug-induced inhibition of GAPDH activity; also recorded: completely prevented”. It also gave an EC50 [5] of ~8 µM.
With `C=C(C)[C@@H]1CC=C(COC(=O)C(=O)CBr)CC1` [NEO218, 3-bromo-2-oxo-propionic acid 4-isopropenyl-cyclohex-1-enylmethyl ester] the IC50 ([1]; all 10 cell lines, irrespective of MCT-1 expression) was 15 to 25 µM, the IC50 ([2]; HCT116 cells treated 30 minutes, then lysed, read-out: IC50 (GAPDH activity)) was < 30 µM and the IC50 ([3]; Homo sapiens, MCF7-DOX, read-out: IC50 (cell survival and colony formation)) was < 10 µM. The “cytotoxic potency compared with the other treatments” value [6] was “much more potent than any other treatment”, the “inhibition of GAPDH enzyme activity” value [4] was “potent inhibition of GAPDH enzyme activity; also recorded: potently decreased enzymatic GAPDH activity” and the “effect of NAC or GSH on drug-induced inhibition of GAPDH activity” value [4] was “effectively prevented the drug-induced inhibition of GAPDH activity; also recorded: completely prevented”. It also gave an EC50 [5] of ~8 µM.
